Measured values published in patent US10465854B2, “Temperature-stable paraffin inhibitor compositions” (Ecolab USA Inc., priority 2016, dated 2019).
Where two headings read alike, the source gives them in different places.

What was measured:
[1] = LogP value in octanol/water; conditions: for logP: octanol/water
[2] = Pour point observation according to ASTM D-97; type: physicochemical
Source text: A number of working examples were composed and tested for flow indicative of solidification point depression (e.g., pour point temperatures). The compositions tested herein are said to “pour or flow” at the indicated temperature when the PIC of each working example, vertically at rest on a substantially horizontal surface the cylindrical container (radius 1 inch, height 2 inches), flows observably within about 10 seconds when tipped to a substantially horizontal position. This amount of flow is known to be sufficient to indicate that the composition is pourable or pumpable for use in the field, where such concentrates are applied to one or more crude oil transportation or storage systems. The flowing samples are said to have a pour point at temperatures where the flow is observed. The pour point is above the solidification temperature for a given sample. The effect on pour point was observed according to ASTM D-97 test method (including storage for a half hour in a freezer set the associated temperature prior to observation for pour or flow).
The effect on pour point was observed according to ASTM D-97 test method (storage for at least one half hour in a freezer set at a specific temperature (e.g., −60° C.)). The specific low Log P molecules, amounts thereof, amounts of PI polymer, with the balance comprising a refined petroleum distillate or solvent such as HAN; and pour point observations according to ASTM D-97 are listed in Table 2 below.
A comparison of pour points was made between control samples having no low Log P molecules and samples including low Log P molecules to determine the total amount of pour point depression.
The relative amounts of pour point depression of PICs having combination nonyl phenol formaldehyde resin and alpha olefin/maleic anhydride (OMAC) copolymer PIs (specifically OMAC amide polymers), were tested by the ASTM D-97 method. A comparison of pour points was made between control samples having no low Log P molecules and samples including low Log P molecules to determine the total amount of pour point depression.
A low Log P ether molecules was tested for pour point depression in various PICs. The 2-methoxy ethanol was tested in various amounts in PICs and in PICs having various amounts of PI polymer (alkyl phenol formaldehyde resin) therein.

[3] = compounds of table 1 tested for pour point and freezing point

Compound `CCOCCO` has a logP [1] of -0.05.

`CC1COC(=O)O1` (stereo not shown) showed a logP [1] of 0.37.

`O=C1CCCCN1` gave a logP [1] of 0.33.

`CCCCOCCO` showed a logP ([1]; LogP, Table 1) of 1.01.

For `O=C1OCCO1`, the logP [1] was 0.01.

`CN1CCCC1=O` showed a logP [1] of 0.07.

With `CN1CCCCC1=O` the logP [1] was 0.57.

In the case of `CNC(=O)NC`, the logP [1] is reported as -0.25.

`COCC(C)OC(C)=O` (stereo not shown) showed a logP [1] of 0.73.

For 2-methoxy ethanol, the logP ([1]; Table 1) was −0.43, the “Log P” value ([1]; text b150) was −0.43 and the “suitability as pour point depressant in PIC compositions” value (shortened to “suitability as pour point depressant”) [2, 3] was “showed promise as pour point depressants”. For the same compound, the “lowered the pour point by” value ([2]; versus the PIC of working example 28) was “about 90 °C”.

With `CC(O)CO` (stereo not shown) [1,2-propanediol] the “suitability as pour point depressant” value [2, 3] was “showed promise as pour point depressants”.

With `C1COCCO1` [1,4-dioxane] the “suitability as pour point depressant” value [2] was “showed promise as pour point depressants”.

`CCCCC(CC)CO` (stereo not shown) [2-Ethyl Hexanol, 2-ethyl hexanol] showed a logP [1] of 2.87 and a logP ([1]; Table 1) of 2.87.

For `O=C1CCCN1` [2-Pyrollidone, 2-pyrrolidone], the logP [1] was -0.18, the logP ([1]; Table 1) was −0.18 and the “suitability as pour point depressant” value [2, 3] was “showed promise as pour point depressants”.

For `O=C1COCCN1` [3-Ketomorpholine, 3-ketomorpholine], the logP [1] was -0.49 and the logP ([1]; Table 1) was −0.49.

With `O=C1CCCO1` [Butryolactone, butyrolactone] the logP ([1]; LogP, Table 7, of the low LogP molecule type) was -0.59 and the “suitability as pour point depressant” value [2] was “showed promise as pour point depressants”.

In the case of `CC(C)CO` [Isobutanol], the logP [1] is reported as 0.8.

In the case of `CC(C)O` [Isopropanol], the “suitability as pour point depressant” value [2, 3] is reported as “showed promise as pour point depressants”.

With `CO` [Methanol] the logP [1] was -0.32, the logP ([1]; Table 1) was −0.32 and the “pour point depressed by” value [2] was 70 °C. For the same compound, the “suitability as pour point depressant” value [2] was “showed promise as pour point depressants”.

With `CN(C)CCO` [dimethylethanolamine] the “suitability as pour point depressant” value [2, 3] was “showed promise as pour point depressants”.

`O=C1CCCO1` [drawing 12] gave a logP ([1]; Table 1) of −0.57.

For `CN(C)CCO` [drawing 17], the logP ([1]; LogP, Table 1) was -0.29.

In the case of `C1COCCO1` [drawing 23], the logP [1] is reported as -0.23.
